Laboratory results as given in patent US4089961A, “Antipsychotically useful quinolizidylidene derivatives of xanthenes, thioxanthenes and dibenzoxepins” (priority 1976, dated 1978).
Where two headings read alike, the source gives them in different places.

How the values were obtained:
[1] = system: striatal dopamine receptors; test: antagonism of amphetamine-induced rotation in rats with unilateral 6-hydroxydopamine lesions of the substantia nigra; assay type: in vivo, rat; conditions: for ED50: Rattus norvegicus, ip, read-out: Antagonism of Amphetamine-induced Rotation Rats ED50; for ED50 for antagonism of amphetamine-induced rotation: rat
Text: (§1) To assess the potency of drugs in blocking striatal dopamine receptors a procedure was used which was developed by Ungerstedt [Ungerstedt and Arbuthnott, Brain Res. 24 485 (1970); Ungerstedt, Acta physiol. scand., Suppl. 367, 49 (1971)] using rats with unilateral lesions of the substantia nigra induced by injection of 6-hydroxydopamine. This treatment causes degeneration of the nigrostriatal dopaminergic pathway accompanied by a marked decrease in the dopamine content of the neostriatum on the side of the lesion. Animals with this lesion develop postural and motor asymmetries which are altered by drugs which effect dopaminergic activity. Amphetamine, which releases dopamine and norepinephrine from catecholaminergic neurons, causes these rats to rotate unidirectionally toward the side of the lesion. Since there is a much larger amount of dopamine to be released by amphetamine from the intact nigrostriatal neurons on the non-lesioned side than from those remaining on the lesioned side, the rotational behavior is apparently due to a preponderance of activation of striatal dopamine receptors on the intact side. The ability of a drug to antagonize the rotational behavior is therefore a measure of its ability to block striatal dopamine receptors and is indicative of its potential to produce EPS.
(§2) To predict the potential ability of a drug to cause EPS, the ratio of its ED50 (i.p.) for antagonism of amphetamine-induced rotation to its ED50 (i.p.) for blockage of shock avoidance acquisition in the rat, a procedure for assessing antipsychotic activity, (R/A ratio) is calculated.

[2] = clinically established antipsychotics; cited from earlier work
[3] = system: striatal dopamine receptors; conditions: rat, in vivo, ip
Text: There is evidence that antipsychotic drugs cause EPS by interfering with neurotransmission in a nigrostriatal dopaminergic pathway. It is throught that they block dopamine receptors in the neostriatum. Therefore, the ability of a drug to block striatal dopamine receptors is a measure of its EPS liability.
as §1, §2

[4] = system: shock avoidance acquisition; test: blockade of shock avoidance acquisition in the rat (procedure for assessing antipsychotic activity); assay type: in vivo; conditions: i.p.
Experimental: as §2

| SMILES | ED50 ([1]; rats, i.p., Table I, R) [mg/kg] | propensity to cause EPS relative to chlorpromazine [2] | R/A ratio [3] | ED50 [1] [mg/kg] | ED50 for antagonism of amphetamine-induced rotation ([1]; i.p.) [mg/kg] | ED50 for blockade of shock avoidance acquisition [4] [mg/kg] |
| --- | --- | --- | --- | --- | --- | --- |
| CN1CCN(CCCN2c3ccccc3Sc3ccc(C(F)(F)F)cc32)CC1 [Trifluoperazine, trifluoperazine] | 0.12 | considerably greater propensity to cause EPS than chlorpromazine | 0.3-0.5 | – | – | – |
| CN(C)CCCN1c2ccccc2Sc2ccc(Cl)cc21 [Chlorpromazine] | – | – | – | 2 | – | – |
| CN1CCN(C2=Nc3cc(Cl)ccc3Nc3ccccc32)CC1 [Clozapine, clozapine] | 25.4 | known to produce EPS to a lesser extent than chlorpromazine | – | – | – | – |
| O=c1[nH]c2ccccc2n1C1CCN(CCCC(c2ccc(F)cc2)c2ccc(F)cc2)CC1 [Pimozide, pimozide] | – | considerably greater propensity to cause EPS than chlorpromazine | – | 0.08 | – | – |
| O=C(CCCN1CCC(O)(c2ccc(Cl)cc2)CC1)c1ccc(F)cc1 [Haloperidol, haloperidol] | 0.05 | considerably greater propensity to cause EPS than chlorpromazine | 0.3-0.5 | – | – | – |
| Clc1ccc2c(c1)C(=C1CCC3CCCCN3C1)c1ccccc1S2 (stereo not drawn) [3-(2-chlorothioxanthen-9-ylidene)quinolizidine, isomer havin] | – | – | 4.8 | – | 8.2 | 1.7 |
| Clc1ccc2c(c1)C(=C1CCC3CCCCN3C1)c1ccccc1S2 (stereo not drawn) [3-(2-chlorothioxanthen-9-ylidene)quinolizidine, other isomer] | – | – | 3.3 | – | 2.3 | 0.7 |
| CSc1ccc2c(c1)N(CCC1CCCCN1C)c1ccccc1S2 (centres unmarked) [Thioridazine, thioridazine] | 13.7 | known to produce EPS to a lesser extent than chlorpromazine | 2.7 | – | – | – |
